Reference: patent publication US20220168442A1, “ARTIFICIAL T-CELL STIMULATING MATRIX FOR IMMUNOTHERAPY” (The Johns Hopkins University, priority 2019, published 2022)
Ends that are not written are not given here.

How the values were obtained:
Type in all cases: cell-based, mouse
B6 CD8+ T cells = test: CD8+ T cell fold expansion after seven days of stimulation on aTM; details: added to culture on 0.5-kPa aTM; 100 μM; same amount of stimulatory ligand
Description: Murine cells were obtained from adult mouse lymph nodes and spleens. Obtained cells were treated with ACK lysing buffer to lyse red blood cells and filtered through cell strainers to isolate splenocytes. PBMCs from healthy donors were isolated by Ficoll-Paque PLUS gradient centrifugation (GE Healthcare). CD8+T lymphocytes were then isolated from splenocytes or PBMCs by negative selection using CD8+ isolation kits and magnetic columns from Miltenyi Biotech (Auburn, Calif., USA) according to the manufacturer's protocol. […]
CD8+ T cells were isolated as previous described and resuspended in 1 mL T cell culture media. […] The CFSE fluorescence intensity was measured using BD FACSCALIBUR™ flow cytometer. Cell proliferation was analyzed using FLOWJO™ with diluted CFSE fluorescence peaks signifying population after each round of cell division. A subset of the cells were allowed to expand for 7 days and viable cells were counted with a hemocytometer to determine fold expansion. […]

murine CD8+ T cells = test: aLN ex vivo CD8+ T cell expansion and phenotype, day 7
Description: Artificial lymph nodes (aLNs) were synthesized by mixing 0.8 w/v % thiolated HA with either 0.1 or 2 w/v % of the crosslinker PEG-diacrylate (PEGDA), which was pre-mixed with 5 μg/mL thiolated anti-CD3 and anti-CD28 antibodies, and either no protein, 100 μM cyclic RGD, or 20 μg/mL laminin was added. Isolated murine CD8+ T cells were added to the surface of the aLNs. On day 7 viable cells were harvested, counted, and stained for phenotypic markers for flow cytometry (CD8, CD44, CD62L). For in vivo experiments, B6 mice received subcutaneous injection of aLN treatment (no protein, 570 Pa, with antigen-specific stimulation from KbSIY for 2C CD8+ T cells) or PBS. 2C CD8+ T cells were isolated, labeled with CellTrace CFSE dye and injected retro-orbitally on the same day. On days 3 and 6, blood samples were taken for CFSE division analysis via flow cytometry.

PMEL CD8+ T cells = test: aTM with laminin or cyclic RGD attached, T cell expansion; details: laminin 20 μg/mL or cyclic RGD 100 μM incorporated into aTM
Description: HA solution was prepared as previously described. Anti-CD3 and anti-CD28 antibodies were purchased respectively from BioXCell (145-2C11; West Lebanon, N.H., USA) and BioLegend (37.51; San Diego, Calif., USA). […] PEGDA crosslinker was added to reduced MHC-Ig dimers, anti-CD3 and anti-CD28 antibody solutions to a final concentration of 0.5% PEGDA for preparation for crosslinking. Prior to hydrogel formation, MHC-Ig dimers or anti-CD3 antibodies and anti-CD28 co-stimulatory signals with 0.5% PEGDA were added to the HA solution to directly attach signals on HA through thiol-diene chemistry. The HA-antibody solution was then mixed with PEGDA crosslinker at a 4:1 ratio to be plated. The aTM was allowed to form within flat-bottomed tissue culture plates to form a complete layer for at least 1 hour prior to washing 3 times with 1×PBS to remove any unbound stimulatory signal, and cells were subsequently plated. To investigate the effects of extracellular matrix (ECM) protein attachment, cyclic RGD (CCRRGDWLC (SEQ ID NO: 1)), which was synthesized by solid phase methods as described previously (Li et al., Stem Cells Transl. Med., 3: 662-670 (2014)), or laminin (ThermoFisher) were added to make a HA solution with protein concentration of 100 μM and 20 μg/mL, respectively, prior to the hydrogel formation. […]

Cc1ccc2c(c1)C(=O)C1(O)CCN(c3ccccc3)C1=N2 (centres unmarked) [blebbistatin]
CD8+ T cell expansion in the presence of the inhibitor (B6 CD8+ T cells): abolished

CCRRGDWLC (SEQ ID NO: 1) (also: cyclic (mode not given here)) [cyclic RGD cell-adhesive peptide attached to aTM / aLN]
percent memory T cells (murine CD8+ T cells; 570-Pa aLN, day 7): increased
total expansion compared to no protein and laminin (murine CD8+ T cells; attached to softer aLNs): nearly doubled total expansion
effect of cell-adhesive ligands on stimulation of antigen-specific PMEL CD8+ T cells (PMEL CD8+ T cells): further increased T cell proliferation

laminin
percent activated T cells (murine CD8+ T cells; 570-Pa aLN, day 7): increased
